In assay [1] the test system is xanthurenic acid binding site(s). Nature of the assay: [3H]-XA binding to synaptic membranes, without ions. Also noted: species or system rat. The note with it: for [^3H]-XA binding displacement, screening: screening at 200 μM concentration.
The next assay has as its system XA transport system. Briefly: XA transport in differentiated NCB-20 cells. Format: cell-based. How it is done:
The cell culture was prepared by using a culture dish of NCB-20 cells at 80% confluence. The culture medium was removed and replaced with 10 ml of DMEM supplemented with 10% FCS. Cells were then detached and suspended by repeated passage of the medium through a 2 mm gauge needle. Cells were then counted in a hemocytometer. The final suspension was adjusted to a cell density of 3.10^4 cells/ml in DMEM medium supplemented with 10% FCS and 1 mM cAMP. Petri dishes were seeded with 2 ml of this suspension and incubated at 37° C. in a moisture-saturated CO2 atmosphere. Cells were used four days after inoculation.
The culture medium of 4-day NCB-20 cell cultures differentiated in cAMP was replaced by one of the buffer solutions described hereinabove (Krebs with or without Na^+, to respectively evaluate Na^+-dependent active transport and passive transport, which occurs mainly through diffusion) according to the type of experiment planned. Culture dishes were placed in a water bath at 37° C. for 10 minutes. The buffer was then replaced by the same buffer solution containing [^3H]-XA and XA at concentrations ranging from […]. [^3H]-XA was present at very low concentration and served only as a tracer of the cold (non-radiolabelled) XA. After 1 minute of incubation, the solutions were aspirated and the cells washed three times for 10 seconds with 1 ml of the same buffer (Krebs with or without Na^+), kept on ice. Active transport requires energy (ATP) and is markedly slowed at temperatures below 37° C. The washed cell layer was frozen in dishes then, the next day, distilled water was added to obtain a solution of cellular debris containing the intracellular radiolabel ([^3H]-XA). Freezing facilitated homogenization by repeated passage of the solution through a pipette. A 900 μl aliquot was added to scintillation fluid (Rotiszint®, 4 ml). The remainder of the solution was sampled to assay protein by the BCA method (Uptima). The radioactivity measured in the scintillation counter was converted by means of a suitable calibration curve into picomoles of XA taken up by the cells per mg of protein.
For each incubation time, transport was measured on nine dishes of NCB-20 cells with Na^+ and without Na^+. Ten different time points were studied: 0-10-30 seconds and 1, 2, 3, 5, 8, 10, 12 minutes. Four different experiments were carried out.
For each XA concentration, XA transport was measured on nine dishes of NCB-20 cells with Na^+ and nine dishes without Na^+. Seven different concentrations were tested: 1-5-12.5-25-50-100-200 μM. Four independent experiments were carried out.
Four milliliters of scintillator were added to the tubes containing 900 μl of the cell suspension obtained. The control tube contained 900 μl of doubly-distilled water, and the tubes used to measure specific activity contained 10 μl of the radioactive solutions used as reagent during the experiment and 890 μl of doubly-distilled water. The tubes were closed, vortexed and left overnight at 4° C. before being counted in the scintillation counter. This count measures intracellular radioactivity which is directly proportional to the quantity of XA that entered the cell through passive or active transport. To calculate the amount of active transport, passive transport (Krebs without Na^+) is simply subtracted from total transport (Krebs with Na^+).
Other endogenous molecules which might be transported by the XA transporter were tested. […] The results are shown in the histogram in FIG. 34 as the percentage entering the cells relative to transport in the presence of radiolabelled XA alone (=100%).

In a further assay the test system is dopaminergic neurons. Briefly: Residual dopamine content after 6-OHDA lesion. Type of assay: in vivo, rat.
The next assay has as its system rat. Nature of the assay: Rotations in rats with unilateral 6-OHDA lesions. Type of assay: in vivo. The note with it: 6-OHDA-lesioned rats, four weeks after lesion; apomorphine s.c. (0.1 and 1.0 mg/kg).
Assay [2] addresses xanthurenic acid binding site(s). Briefly: [3H]-XA binding to synaptic membranes in the presence of copper ions. Also noted: species or system rat. The note with it: read-out: EC50 (50% effective concentration) on XA binding; Tris maleate pH 6.5, room temperature, 400 nM [^3H]-XA (+20 μM xanthurenic acid) (FIG. 17).
For assay [3] the target is unchanged. Briefly: Effect of ions on xanthurenic acid binding to synaptic membranes. The note with it: read-out: EC50 of ions on xanthurenic acid binding. Also noted: species or system rat.
The test system of the next assay is XA release in the PFC. Nature of the assay: XA release in prefrontal cortex, in vivo microdialysis. Also noted: species or system rat. The procedure: Male Wistar rats weighing 350–400 g were used for the experiments. Animals were housed individually in plastic cages with a light/dark cycle of 7 a.m./7 p.m. and 7 p.m./7 a.m. Animals had access to food and water ad libitum. Animal experiments were conducted in strict accordance with the requirements of the European Directive of 24 Nov. 1986 (86/609/EEC).
The experiments were carried out using an L-shaped cannula with a 4 mm tip. A polycarbonate-polyether dialysis membrane (500 μm) with a 20 Kda cutoff was used. The dialysis membrane was inserted in the prefrontal cortex (PFC) while one of the tips of the bipolar stimulation electrode was implanted in the PFC and the other in the VTA. The procedure was performed under ketamine anesthesia.
The experiments were carried out in conscious animals, 24 to 72 hours after the surgery. The perfusion medium had the following composition: 147 mM NaCl, 1.2 mM CaCl2, 1.2 mM MgCl2, and 4.0 mM KCl, pH 6.5. In the case of stimulations at high potassium concentrations, sodium ion concentrations were lowered to the same value. In the case of stimulations in the absence of calcium ions, 2.0 mM EGTA was added to the dialysis medium. Dialysates were collected at a rate of 2 μl/min, every 5 minutes, and immediately stored in liquid nitrogen up to analysis.
These two compounds were quantitatively determined by HPLC chromatography with electrochemical detection. The chromatographic system consisted of a 25 cm×4.6 mm Hypersyl C18 column, maintained at constant temperature. The mobile phase was 0.05 M NaH2PO4 buffer+0.1 mM EDTA and 6% methanol. Peaks were identified by comparison with the retention times measured on calibration standard solutions.
The VTA was stimulated for a period of 10 minutes, with bursts of thirty 0.5-msec pulses for 100 millisec, intensity 100 or 200 μA and at a frequency of 25 Hz.

Setting [4] is: unilateral 6-OHDA lesion of VTA and SNc, ±SEM (n=3).

Consider 20 compounds from patent US7122326B2 (Universite Louis Pasteur, priority 2001, dated 2006).

“Also recorded” adds a separate entry of the source. Where two headings read alike, the source gives them in different places.

For `O=C(O)c1ccccn1` [picolinic acid], the “[^3H]-XA binding displacement, screening” value in assay [1] is listed as “None of these compounds caused significant displacement”.

Regarding `N[C@@H](Cc1c[nH]c2ccc(O)cc12)C(=O)O` [5-hydroxy-L-tryptophan], the “[^3H]-XA binding displacement, screening” value in assay [1] is “None of these compounds caused significant displacement”. With `N[C@@H](Cc1c[nH]c2ccccc12)C(=O)O` [L-tryptophan], in the assay with XA transport system, the “inhibition of cellular transport of XA” value was “good inhibitors; also recorded: inhibit this transport”. Take `O=CC[C@@H](O)[C@H](O)[C@H](O)CO` [2-deoxyglucose]: the “decrease in XA transport” value with XA transport system (cellular energy production blocked (FIG. 34)) is on record as roughly 50%. On to `Br.NCCc1cc(O)c(O)cc1O` [6-OHDA, 6-hydroxydopamine hydrobromide], for which, in the assay with dopaminergic neurons (setting [4]), the “residual dopamine content, damaged VTA —SNc” value was 32±31 pmoles/g of wet tissue and the “residual dopamine content, damaged striatum” value is 261±123 pmoles/g of wet tissue. Besides, the “change of dopamine content, damaged versus intact striatum” value in the assay on dopaminergic neurons (unilateral 6-OHDA lesion, p=0.0033) is recorded as −98%. For the same compound, the “change of dopamine content, damaged versus intact VTA —SNc” value with dopaminergic neurons (unilateral 6-OHDA lesion, p=0.0157) is on record as −95%. With `Nc1ncnc2c1ncn2[C@@H]1O[C@H](COP(=O)(O)OP(=O)(O)OP(=O)(O)O)[C@@H](O)[C@H]1O` [adenosine triphosphate], the “affinity for the xanthurenic acid site / inhibition of tritiated XA binding” value in assay [1] was “showed significant affinity for the xanthurenic acid site and inhibited the binding of tritiated XA”. Still for that read-out and setting: with `Nc1ncnc2c1ncn2[C@@H]1O[C@H](CO)[C@@H](O)[C@H]1O` [adenosine] the entry was “showed significant affinity for the xanthurenic acid site and inhibited the binding of tritiated XA”.

As to `Nc1ncnc2nc[nH]c12` [adenine], the “affinity for the xanthurenic acid site / inhibition of tritiated XA binding” value in assay [1] was “showed significant affinity for the xanthurenic acid site and inhibited the binding of tritiated XA”.

As to `N[C@@H](Cc1ccc(O)cc1)C(=O)O` [L-tyrosine], the “inhibition of cellular transport of XA” value is “good inhibitors” in the assay with XA transport system (NCB-20 cells (FIG. 34)) and “inhibit this transport” in the assay with XA transport system (NCB-20 cells (FIG. 34), listed as tyrosine).

Regarding `CN1CCc2cccc3c2[C@H]1Cc1ccc(O)c(O)c1-3` [apomorphine], in the assay on rat, the “number of controlateral rotations” value was determined as 130±45 turns/15 minutes.

As to `[Cl][Cu][Cl]` [copper ions, CuCl2], the EC50 in assay [2] is 33.4 µM; in assay [3] (50 mM Tris maleate pH 6.5, 0° C., 200 nM [^3H]-XA (FIG. 14)), roughly 100 µM. With `O=C(O)c1cc(=O)c2ccccc2[nH]1` [kynurenic acid], in the assay with XA transport system (NCB-20 cells (FIG. 34)), the “inhibition of cellular transport of XA” value is “good inhibitors”. Besides, the “[^3H]-XA binding displacement, screening” value in assay [1] was “no displacement of [^3H]-XA from its binding site(s) but rather a potentiation of this binding”. Turning to `NC1=N[C@H](O)[C@H]2[C@H]3O[C@]4(O)O[C@@H]([C@@H](O)[C@@]2(N1)[C@@H]4O)[C@]3(O)CO` [tetrodotoxin], the “XA release in PFC induced by electrical stimulation of the VTA” value in the assay with XA release in the PFC (rat, in vivo) was “completely blocked”. Turning to `[Cl-].[K+]` [KCl], the “XA release in the PFC extracellular medium, % of the baseline value” in the assay on XA release in the PFC (100 mM KCl in the dialysis probe for 5 minutes, after 40 minutes) is on record as 250%. As for `[Cl-].[Cl-].[Zn+2]` [zinc ions, ZnCl2], in the assay on XA transport system (ions present in the medium (FIG. 34)), the “potentiation of XA transport” value is “highly significant potentiation”. For the same compound, the EC50 in assay [3] (pH 6.5) is roughly 500 µM. With veratrine, the “XA release in the PFC, % of baseline” value with XA release in the PFC (50 μM in the probe for 20 minutes, after 20 minutes) was “approximately 600%”. Turning to `Nc1c(O)cccc1C(=O)CC(N)C(=O)O` (racemic) [3OH-D,L-kynurenin], in assay [1], the “[^3H]-XA binding displacement, screening” value is on record as “None of these compounds caused significant displacement”. Still for that read-out and setting: the entry for `Nc1ccccc1C(=O)C[C@H](N)C(=O)O` [L-kynurenin] is “None of these compounds caused significant displacement”.

Regarding `Nc1ncnc2c1ncn2[C@@H]1O[C@H](COP(=O)(O)OP(=O)(O)O)[C@@H](O)[C@H]1O` [adenosine diphosphate], the “affinity for the xanthurenic acid site / inhibition of tritiated XA binding” value in assay [1] was “showed significant affinity for the xanthurenic acid site and inhibited the binding of tritiated XA”. As to `Nc1c(O)cccc1C(=O)O` [3-hydroxyanthranilic acid], the “[^3H]-XA binding displacement, screening” value in assay [1] is reported as “None of these compounds caused significant displacement”.
